According to US20070043104A1, “UII-modulating compounds and their use” (priority 2005, published 2007):
Counter-ions that a name gives are not always drawn.

Biological target: T1, human urotensin II receptor (Homo sapiens, UniProt Q9UKP6)
T1 construct: expressed in transfected cells; host or cells: NIH3T3 cells
T1 sequence (Q9UKP6 1-389): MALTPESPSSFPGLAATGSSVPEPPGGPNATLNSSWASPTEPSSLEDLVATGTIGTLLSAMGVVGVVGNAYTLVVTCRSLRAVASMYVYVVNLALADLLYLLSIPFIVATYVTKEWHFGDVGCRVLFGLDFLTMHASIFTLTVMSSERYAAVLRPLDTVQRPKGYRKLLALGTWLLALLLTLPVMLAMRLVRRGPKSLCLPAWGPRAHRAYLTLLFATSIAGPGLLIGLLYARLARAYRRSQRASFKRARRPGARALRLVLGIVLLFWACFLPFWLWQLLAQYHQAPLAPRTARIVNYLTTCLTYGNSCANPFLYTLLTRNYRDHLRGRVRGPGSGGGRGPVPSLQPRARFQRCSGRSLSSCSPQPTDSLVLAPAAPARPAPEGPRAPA
Experiment: Receptor Selection and Amplification (R-SAT) functional assay, NIH3T3 cells transfected with human urotensin II receptor and β-galactosidase marker
Assay type: cell-based
Conditions: for EC50 / pEC50: Table 3, negative of the log EC50 in molarity, average ± standard deviation (or range) of determinations, eight doses in triplicate; for Emax: NIH3T3, Table 3, percent activation normalized to the reference ligand assigned 100%, read-out: Efficacy
Procedure: The functional receptor assay, Receptor Selection and Amplification Technology (R-SAT™), was used (with minor modifications from the procedure described previously (Brann, M. R. U.S. Pat. No. 5,707,798, 1998; Chem. Abstr. 1998, 128, 111548) to screen compounds for efficacy at the UII receptor. The RSAT assay was conducted as described herein.
Briefly, NIH3T3 cells were grown in tissue culture treated rollerbottles to 40-80% confluence in Dulbecco's modified Eagle's medium (DMEM) supplemented with 10% bovine calf serum (Hyclone) and 1% penicillin/streptomycin/glutamine (Invitrogen). Cells were transfected for 12-18 hours with the human urotensin II receptor and the β-galactosidase marker. After transfection, the cells were trypsinized, harvested and frozen in DMEM containing 10% DMSO. Frozen cells were later thawed and tested for a response to a control compound to perform quality control before initiation of pharmacological testing, ensuring the correct pharmacological response and sufficient sensitivity. To initiate the pharmacological assay, cells were thawed rapidly and prepared in DMEM media containing 0.4% calf serum (Hyclone), 30% UltraCulture (Biowhittaker), and 1% penicillin/streptomycin/glutamine (Invitrogen), and then plated at 10,000-40,000 cells per well of a 96½ area plate that contained either the test compounds or reference ligands. Cells were then grown in a humidified atmosphere with 5% ambient CO2 for five days. Media was then removed from the plates and marker gene activity was measured by the addition of the beta-galactosidase substrate ONPG (in PBS with 5% NP-40). The resulting colorimetric reaction was measured in a spectrophotometric plate reader (Titertek Inc.) at […].
pEC50 represents the negative logarithm of the concentration of ligand that caused 50% activation of the basal receptor response. Percent activation was calculated as the difference between the absorbance measurements in the absence of added ligand compared with that in the presence of saturating concentrations of ligand normalized to the absorbance difference for the reference ligand, which was assigned a value of 100%.
Results were determined in R-SAT assays and are expressed as pEC50, the negative of the log EC50 in molarity. Results are the average±standard deviation of 2-X determinations of the EC50 where each compound was tested in eight doses in triplicate.

Q: What does the source list for `CN(C)CCC(NC(=O)c1ccc(-c2ccccc2)cc1)c1ccc(Cl)cc1.O=C(O)C(=O)O` (single isomer, unassigned; (+)) [(+) 5o, (+)-N-[1-(4-Chlorophenyl)-3-dimethylamino-propyl]-4-phenyl-benzamide oxalate]?
A: EC50: 12.3 to 27.5 nM; Efficacy (Table 3, percent activation normalized to the reference ligand assigned 100%, oxalate): 104-108%

Q: `CN(C)CCC(NC(=O)c1ccc(-c2ccccc2)cc1)c1ccc(Cl)cc1` (single isomer, unassigned; (-)) [(−) 5o, (−)-N-[1-(4-Chlorophenyl)-3-dimethylamino-propyl]-4-phenyl-benzamide oxalate] was tested. Which Emax did it give?
A: The Emax was 112 to 114%.

Q: And the EC50?
A: The EC50 was 1150 to 1200 nM.

Q: `CO[C@@H](C(=O)NC(CCN(C)C)c1ccc(Cl)cc1)c1ccccc1` (single isomer, unassigned; (-)) [(−) 5s, oxalate] was tested. Which Emax did it give?
A: The Emax was 165 ± 10%.

Q: What about the EC50 of the same molecule?
A: Its EC50 is 871 nM.

Q: Which results are given for `Cc1ccccc1C(=O)OC(CCN(C)C)c1ccc(Cl)cc1.Cl` (stereo not drawn) [4a, 1-(4-Chlorophenyl)-3-dimethylamino-propyl 2-methyl-benzoate HCl]?
A: Emax: 126 ± 34%; pEC50: 5.77 ± 0.01

Q: `CCc1ccccc1C(=O)OC(CCN(C)C)c1ccc(Cl)cc1.Cl` (stereo not drawn) [4b, 1-(4-Chlorophenyl)-3-dimethylamino-propyl 2-ethyl-benzoate HCl] was tested. Which Emax did it give?
A: Its Emax is 128 ± 31%.

Q: And the pEC50?
A: The pEC50 was 5.89 ± 0.05.

Q: Which results are given for `Cc1ccc(C(=O)OC(CCN(C)C)c2ccc(Cl)cc2)cc1.Cl` (stereo not drawn) [4c, 1-(4-Chlorophenyl)-3-dimethylamino-propyl 4-methyl-benzoate HCl]?
A: Emax: 56 ± 6%; pEC50: 5.56 ± 0.01

Q: For `Cc1cccc(C(=O)OC(CCN(C)C)c2ccc(Cl)cc2)c1C` (stereo not drawn) [4d, 1-(4-Chlorophenyl)-3-dimethylamino-propyl 2,3-dimethyl-benzoate HCl], which Emax is on record?
A: Its Emax is 94 ± 42%.

Q: And the EC50?
A: The EC50 was 1260 nM.

Q: What does the source list for `COc1cccc(C(=O)OC(CCN(C)C)c2ccc(Cl)cc2)c1C` (stereo not drawn) [4e, 1-(4-Chlorophenyl)-3-dimethylamino-propyl 3-methoxy-2-methyl-benzoate HCl]?
A: Emax: 120 ± 57%; EC50: 2090 nM

Q: How did the Emax turn out when `Cc1c(Cl)cccc1C(=O)OC(CCN(C)C)c1ccc(Cl)cc1.Cl` (stereo not drawn) [4f, 1-(4-Chlorophenyl)-3-dimethylamino-propyl 3-chloro-2-methyl-benzoate HCl] was run?
A: The Emax was 118 ± 37%.

Q: What about the pEC50 of the same molecule?
A: Its pEC50 is 5.95 ± 0.05.

Q: Which Emax does the source give for `Cc1cc(Br)ccc1C(=O)OC(CCN(C)C)c1ccc(Cl)cc1.Cl` (stereo not drawn) [4g, 1-(4-Chlorophenyl)-3-dimethylamino-propyl 4-bromo-2-methyl-benzoate HCl] here?
A: Its Emax is 95 ± 37%.

Q: What about the pEC50 of the same molecule?
A: Its pEC50 is 5.97 ± 0.24.

Q: With `Cc1ccc(C)c(C(=O)OC(CCN(C)C)c2ccc(Cl)cc2)c1.Cl` (stereo not drawn) [4h, 1-(4-Chlorophenyl)-3-dimethylamino-propyl 2,5-dimethyl-benzoate HCl] as the molecule, how does the Emax read?
A: The Emax was 86%.

Q: And the pEC50?
A: The pEC50 was 5.73 ± 0.15.

Q: Which Emax does the source give for `Cc1cc(C)c(C(=O)OC(CCN(C)C)c2ccc(Cl)cc2)cc1C.Cl` (stereo not drawn) [4i, 1-(4-Chlorophenyl)-3-dimethylamino-propyl 2,4,5-trimethyl-benzoate HCl] here?
A: Its Emax is 60 ± 4%.

Q: What about the pEC50 of the same molecule?
A: Its pEC50 is 6.33 ± 0.6.

Q: `Cc1ccsc1C(=O)OC(CCN(C)C)c1ccc(Cl)cc1.Cl` (stereo not drawn) [4j, 1-(4-Chlorophenyl)-3-dimethylamino-propyl 3-methyl-thiophene-2-carboxylate HCl] was tested. Which Emax did it give?
A: Its Emax is 119 ± 44%.

Q: And the pEC50?
A: Its pEC50 is 5.60 ± 0.05.

Q: What does the source list for `CN(C)CCC(OC(=O)c1cccc2ccccc12)c1ccc(Cl)cc1.Cl` (stereo not drawn) [4k, 1-(4-Chlorophenyl)-3-dimethylamino-propyl naphthalene-1-carboxylate HCl]?
A: Emax: 95 ± 24%; pEC50: 5.64 ± 0.02

Q: Which Emax does the source give for `CN(C)CCC(OC(=O)c1ccc2ccccc2c1)c1ccc(Cl)cc1.Cl` (stereo not drawn) [4l, 1-(4-Chlorophenyl)-3-dimethylamino-propyl naphthalene-2-carboxylate HCl] here?
A: Its Emax is 49 ± 28%.

Q: What about the pEC50 of the same molecule?
A: The pEC50 was 5.68 ± 0.04.

Q: Which results are given for `CN(C)CCC(OC(=O)c1ccc(-c2ccccc2)cc1)c1ccc(Cl)cc1.Cl` (stereo not drawn) [4m, 1-(4-Chlorophenyl)-3-dimethylamino-propyl 4-phenyl-benzoate HCl]?
A: Emax: 53 ± 27%; pEC50: 6.28 ± 0.14

Q: With `CN(C)CCC(OC(=O)c1cc2ccccc2n1C)c1ccc(Cl)cc1` (stereo not drawn) [4n, 1-(4-Chlorophenyl)-3-dimethylamino-propyl 1-methyl-indole-2-carboxylate HCl] as the molecule, how does the Emax read?
A: Its Emax is 104 ± 34%.

Q: What about the EC50 of the same molecule?
A: Its EC50 is 1910 nM.

Q: With `CN(C)CCC(OC(=O)c1cn(C)c2ccccc12)c1ccc(Cl)cc1` (stereo not drawn) [4o, 1-(4-Chlorophenyl)-3-dimethylamino-propyl 1-methyl-indole-3-carboxylate HCl] as the molecule, how does the Emax read?
A: The Emax was 115 ± 71%.

Q: And the EC50?
A: Its EC50 is 1620 nM.

Q: What does the source list for `COc1ccc(C(=O)OC(CCN(C)C)c2ccc(Cl)cc2)cc1` (stereo not drawn) [4p, 1-(4-Chlorophenyl)-3-dimethylamino-propyl 4-methoxy-benzoate oxalate]?
A: Emax: 52 to 101%; EC50: 1550 to 3720 nM

Q: Which Emax does the source give for `CN(C)CCC(OC(=O)c1ccc(C(F)(F)F)cc1)c1ccc(Cl)cc1` (stereo not drawn) [4q, 1-(4-Chlorophenyl)-3-dimethylamino-propyl 4-trifluoromethyl-benzoate oxalate] here?
A: Its Emax is 36 to 38%.

Q: What about the EC50 of the same molecule?
A: Its EC50 is 1170 to 2090 nM.

Q: Which results are given for `CN(C)CCC(NC(=O)c1ccccc1)c1ccc(Cl)cc1.Cl` (stereo not drawn) [5a, N-[1-(4-Chlorophenyl)-3-dimethylamino-propyl]-benzamide HCl]?
A: Emax: 158 ± 39%; pEC50: 5.85 ± 0.01

Q: For `Cc1ccccc1C(=O)NC(CCN(C)C)c1ccc(Cl)cc1.O=C(O)C(=O)O` (stereo not drawn) [5b, N-[1-(4-Chlorophenyl)-3-dimethylamino-propyl]-2-methyl-benzamide oxalate], which Emax is on record?
A: The Emax was 175 ± 15%.

Q: What about the pEC50 of the same molecule?
A: Its pEC50 is 5.45 ± 0.04.

Q: Which results are given for `CCc1ccccc1C(=O)NC(CCN(C)C)c1ccc(Cl)cc1` (stereo not drawn) [5c, N-[1-(4-Chlorophenyl)-3-dimethylamino-propyl]-2-ethyl-benzamide oxalate]?
A: Emax: 140 ± 14%; EC50: 1020 nM

Q: Which results are given for `COc1ccc(C(=O)NC(CCN(C)C)c2ccc(Cl)cc2)cc1.O=C(O)C(=O)O` (stereo not drawn) [5d, N-[1-(4-Chlorophenyl)-3-dimethylaminopropyl]-4-methoxy-benzamide oxalate]?
A: Emax: 148 ± 33%; pEC50: 5.87 ± 0.2

Q: For `CN(C)CCC(NC(=O)c1ccc(N(C)C)cc1)c1ccc(Cl)cc1.O=C(O)C(=O)O` (stereo not drawn) [5e, N-[1-(4-Chlorophenyl)-3-dimethylaminopropyl]-4-dimethylamino-benzamide oxalate], which Emax is on record?
A: The Emax was 145 ± 25%.

Q: What about the pEC50 of the same molecule?
A: The pEC50 was 5.87 ± 0.17.

Q: Which results are given for `Cc1cccc(C(=O)NC(CCN(C)C)c2ccc(Cl)cc2)c1C.O=C(O)C(=O)O` (stereo not drawn) [5f, N-[1-(4-Chlorophenyl)-3-dimethylamino-propyl]-2,3-dimethyl-benzamide oxalate]?
A: Emax: 159 ± 1%; pEC50: 5.44 ± 0.08

Q: Which Emax does the source give for `COc1cccc(C(=O)NC(CCN(C)C)c2ccc(Cl)cc2)c1C.O=C(O)C(=O)O` (stereo not drawn) [5g, N-[1-(4-Chlorophenyl)-3-dimethylamino-propyl]-3-methoxy-2-methyl-benzamide oxalate] here?
A: Its Emax is 179 ± 11%.

Q: And the pEC50?
A: Its pEC50 is 5.37 ± 0.14.

Q: `Cc1c(Cl)cccc1C(=O)NC(CCN(C)C)c1ccc(Cl)cc1.O=C(O)C(=O)O` (stereo not drawn) [5h, N-[1-(4-Chlorophenyl)-3-dimethylamino-propyl]-3-chloro-2-methyl-benzamide oxalate] was tested. Which Emax did it give?
A: Its Emax is 142 ± 14%.

Q: And the pEC50?
A: The pEC50 was 5.76 ± 0.13.

Q: How did the Emax turn out when `Cc1ccc(C(=O)NC(CCN(C)C)c2ccc(Cl)cc2)c(C)c1.O=C(O)C(=O)O` (stereo not drawn) [5i, N-[1-(4-Chlorophenyl)-3′-dimethylamino-propyl]-2,4-dimethyl-benzamide oxalate] was run?
A: The Emax was 147 ± 29%.

Q: What about the pEC50 of the same molecule?
A: The pEC50 was 5.81 ± 0.06.

Q: `Cc1ccc(C)c(C(=O)NC(CCN(C)C)c2ccc(Cl)cc2)c1.O=C(O)C(=O)O` (stereo not drawn) [5j, N-[1-(4-Chlorophenyl)-3-dimethylamino-propyl]-2,5-dimethyl-benzamide oxalate] was tested. Which Emax did it give?
A: Its Emax is 164 ± 20%.

Q: And the pEC50?
A: The pEC50 was 5.54 ± 0.04.
